Results reported in patent US10167269B2, “Cockroach attraction-aggregation substance, cockroach aggregation attractant and cockroach controlling agent” (Kyoto University, priority 2013, dated 2019).

system: cockroaches; test: biological test using the linear track olfactometer (attraction-aggregation activity); assay type: in vivo, American cockroaches; conditions: Test Example 1; dose 10^2 pg; EPI=(NS-NC)/(NS+NC)
Text: The method for determining the activity of the cockroach attraction-aggregation substance is not particularly limited herein, and the activity may be determined by, for example, a biological test using a linear track olfactometer (FIG. 1).
An olfactometer (linear track olfactometer) is typically an instrument used to conduct bioassays to observe the response of insects to volatiles. The instrument has a bifurcation at which air flow containing an attractant substance attracts the insect subjects (see, e.g., J. Jpn. For. Soc., 89(2), 2007, “An Olfactometer Testing the Olfactory Response of the Japanese Horntail Urocerus japonicus to Volatiles.”, 135-137, and Nogyo Kankyo Kenkyu Sosho, Vol. 17, “Nogyo Seitaikei no Hozen ni Muketa Seibutsu Kino no Katsuyo”, 108-134).
A biological test with a linear track olfactometer will be specifically described below. In FIG. 1, air suction from the top 1 of the central tube allows air to enter from the tops (2a and 2b) of the right and left tubes, thereby air flows are generated from the both sides, flowing through the horizontal tube toward the top of the central tube. The left tube is the control side, and the right tube is the sample side. Insect subjects (7 to 10 day-old larvae) are placed at the bottom 4 of the central tube. Air is then slowly suctioned from the top of the central tube with a pump (2.5 L/min). The insect subjects are allowed to freely move for 5 minutes at 25±1° C. at a relative humidity of 40 to 60% in total darkness. The numbers of the insect subjects that have moved to the control side and to the sample side are counted. The excess proportion index (EPI) is calculated by the following equation: EPI=(NS−NC)/(NS+NC) (where NS is the number of the insect subjects that have moved to the sample side; and NC is the number of the insect subjects that have moved to the control side).
An EPI closer to 1 indicates higher attraction-aggregation activity on cockroaches.
In the examples, the attraction-aggregation activity on cockroaches was determined by a biological test using the above-described linear track olfactometer (FIG. 1).

Which EPI value does the source give for CCC1Cc2cc(C)c(C)c(O)c2C(=O)O1 (stereo not drawn) [Example 5, 3,4-dihydro-8-hydroxy-3-ethyl-6,7-dimethyl-1H-2-benzopyran-1-one] here?
The EPI value was “about 0.5”.

same assay, conditions: Test Example 1; even at a dose of 10^6 pg

For CCC1Cc2cc(C)c(C)c(OC)c2C(=O)O1 (stereo not drawn) [Comparative Example 1, reference compound], which “attraction-aggregation activity on cockroaches” value (“attraction-aggregation activity” for short) is on record?
Its value is “no activity”.

same assay, conditions: Test Example 5; compounds isolated from frass in Example 24

With CC[C@H]1OC(=O)c2c(ccc(C)c2O)[C@@H]1C (relative stereo) [PLD-C, (trans)-3,4-dihydro-8-hydroxy-4,7-dimethyl-3-ethyl-1H-2-benzopyran-1-one] as the compound, how does the “attraction-aggregation activity” value read?
The value was “high attraction-aggregation activity”.

With Cc1ccc2c(c1O)C(=O)O[C@H](C)[C@H]2C (relative stereo) [PLD-A, (trans)-3,4-dihydro-8-hydroxy-3,4,7-trimethyl-1H-2-benzopyran-1-one] as the compound, how does the “attraction-aggregation activity” value read?
Its value is “high attraction-aggregation activity”.

How did the “attraction-aggregation activity” value turn out when CCC(C)C1Cc2c(C)cc(C)c(O)c2C(=O)O1 (stereo not drawn) [PLD-E, 3,4-dihydro-8-hydroxy-3-(1-methylpropyl)-5,7-dimethyl-1H-2-benzopyran-1-one] was run?
The value was “high attraction-aggregation activity”.

How did the “attraction-aggregation activity” value turn out when CCCC(C)C1Cc2c(C)cc(C)c(O)c2C(=O)O1 (stereo not drawn) [PLD-F, 3,4-dihydro-8-hydroxy-3-(1-methylbutyl)-5,7-dimethyl-1H-2-benzopyran-1-one] was run?
Its value is “high attraction-aggregation activity”.

How did the “attraction-aggregation activity” value turn out when CC[C@@H]1OC(=O)c2c(ccc(C)c2O)[C@@H]1C (relative stereo) [PLD-D, (cis)-3,4-dihydro-8-hydroxy-4,7-dimethyl-3-ethyl-1H-2-benzopyran-1-one] was run?
Its value is “high attraction-aggregation activity”.

Cc1ccc2c(c1O)C(=O)O[C@@H](C)[C@H]2C (relative stereo) [PLD-B, (cis)-3,4-dihydro-8-hydroxy-3,4,7-trimethyl-1H-2-benzopyran-1-one] was tested. Which “attraction-aggregation activity” value did it give?
Its value is “high attraction-aggregation activity”.

same assay, conditions: Test Examples 1 and 4; doses ranging from 10^-3 pg to 10^6 pg; 7 to 10 day-old larvae, 5 minutes

For Cc1ccc2c(c1O)C(=O)OC1CCCC21 (stereo not drawn) [Example 17, 2,3,3a,9b-tetrahydro-6-hydroxy-7-methyl-cyclopenta[c][2]benzopyran-5(1H)-one], which “attraction-aggregation activity” value is on record?
Its value is “showed attraction-aggregation activity”.

Which “attraction-aggregation activity” value does the source give for CCC1Cc2cc(C)c(C)c(O)c2C(=O)O1 (stereo not drawn) [Example 5, 3,4-dihydro-8-hydroxy-3-ethyl-6,7-dimethyl-1H-2-benzopyran-1-one] here?
Its value is “high attraction-aggregation activity”.

How did the “attraction-aggregation activity” value turn out when Cc1ccc2c(c1O)C(=O)OC2 [Example 18, 7-hydroxy-6-methyl-1(3H)-isobenzofuranone] was run?
Its value is “showed attraction-aggregation activity”.

Which “attraction-aggregation activity” value does the source give for CC1Cc2cccc(O)c2C(=O)O1 (stereo not drawn) [Example 23, mellein] here?
Its value is “high attraction-aggregation activity”.

same assay, conditions: Test Examples 2 and 3; doses ranging from 10^-3 pg to 10^3 pg

For CCC1Cc2ccc(C)c(O)c2C(=O)O1 (stereo not drawn) [Example 3, 3,4-dihydro-8-hydroxy-3-ethyl-7-methyl-1H-2-benzopyran-1-one], which “attraction-aggregation activity” value is on record?
The value was “high attraction-aggregation activity”.

Which “attraction-aggregation activity” value does the source give for Cc1ccc2c(c1O)C(=O)OC(C)C2 (stereo not drawn) [step 1-4 of Example 1, 3,4-dihydro-8-hydroxy-3,7-dimethyl-1H-2-benzopyran-1-one] here?
The value was “high attraction-aggregation activity”.

CCC1Cc2c(C)cc(C)c(O)c2C(=O)O1 (stereo not drawn) [Example 4, 3,4-dihydro-8-hydroxy-3-ethyl-5,7-dimethyl-1H-2-benzopyran-1-one] was tested. Which “attraction-aggregation activity” value did it give?
The value was “high attraction-aggregation activity”.
